Reference: patent US20240050428A1 (Cullgen (Shanghai), Inc., priority 2020, published 2024)
Like-named read-outs stand apart in the source and are kept apart here.

How the values were obtained:
MV4;11 cells = assay: Cell viability assay (CellTiter-Glo) in MV4;11 cells, alone or with gilteritinib; type: cell-based; conditions: Homo sapiens, MV4-11, 72 h, MV4;11 cells, three days, CellTiter-Glo, read-out: MV4
MOLM-13 cells = assay: Cell viability assay (CellTiter-Glo) in MOLM-13 cells, alone or with gilteritinib; type: cell-based; conditions: Homo sapiens, MOLM-13, 72 h, MOLM-13 cells, three days, CellTiter-Glo
[1] = compound alone (without gilteritinib), 11 IC50
[2] = compound with gilteritinib 10 nM, 11 IC50 gilteritinib
[3] = compound alone (without gilteritinib), read-out: MOLM-13 IC50
[4] = compound with gilteritinib 20 nM, read-out: MOLM-13 IC50 gilteritinib

CN1CCN(c2ccc3ncc(-c4cn([C@H]5C[C@H](CNc6ccc7c(c6)C(=O)N(C6CCC(=O)NC6=O)C7=O)C5)nc4C4CC4)nc3c2)CC1 (stereo partly drawn) [GS-463, 5-(((trans-3-(3-cyclopropyl-4-(7-(4-methylpiperazin-1-yl)quinoxalin-2-yl)-1H-pyrazol-1-yl)cyclobutyl)methyl)amino)-2-(2,6-dioxopiperidin-3-yl)isoindoline-1,3-dione]
IC50 (MV4;11 cells; [1]): 10 to 100 nM
IC50 (MV4;11 cells; [2]): < 10 nM
IC50 (MOLM-13 cells; [3]): 10 to 100 nM
IC50 (MOLM-13 cells; [4]): < 10 nM

O=C1CCC(N2C(=O)c3ccc(NC[C@H]4C[C@H](n5cc(-c6cnc7ccc(N8CCOCC8)cc7n6)c(C6CC6)n5)C4)cc3C2=O)C(=O)N1 (stereo partly drawn) [GS-464, 5-(((trans-3-(3-cyclopropyl-4-(7-morpholinoquinoxalin-2-yl)-1H-pyrazol-1-yl)cyclobutyl)methyl)amino)-2-(2,6-dioxopiperidin-3-yl)isoindoline-1,3-dione]
IC50 (MV4;11 cells; [1]): < 10 nM
IC50 (MV4;11 cells; [2]): < 10 nM
IC50 (MOLM-13 cells; [3]): < 10 nM
IC50 (MOLM-13 cells; [4]): < 10 nM

Cn1cccc(-c2cn([C@H]3C[C@H](CNc4ccc5c(c4)C(=O)N(C4CCC(=O)NC4=O)C5=O)C3)nc2C2CC2)c1=O (stereo partly drawn) [GS-465, 5-(((trans-3-(3-cyclopropyl-4-(1-methyl-2-oxo-1,2-dihydropyridin-3-yl)-1H-pyrazol-1-yl)cyclobutyl)methyl)amino)-2-(2,6-dioxopiperidin-3-yl)isoindoline-1,3-dione]
IC50 (MV4;11 cells; [1]): > 1000 nM
IC50 (MV4;11 cells; [2]): 100 to 1000 nM
IC50 (MOLM-13 cells; [3]): > 1000 nM
IC50 (MOLM-13 cells; [4]): 10 to 100 nM

O=C1CCC(N2C(=O)c3ccc(NC[C@H]4C[C@H](n5cc(-c6cccc(C7CC7)n6)c(C6CC6)n5)C4)cc3C2=O)C(=O)N1 (stereo partly drawn) [GS-466, 5-(((trans-3-(3-cyclopropyl-4-(6-cyclopropylpyridin-2-yl)-1H-pyrazol-1-yl)cyclobutyl)methyl)amino)-2-(2,6-dioxopiperidin-3-yl)isoindoline-1,3-dione]
IC50 (MV4;11 cells; [1]): 10 to 100 nM
IC50 (MV4;11 cells; [2]): 10 to 100 nM
IC50 (MOLM-13 cells; [3]): 100 to 1000 nM
IC50 (MOLM-13 cells; [4]): 10 to 100 nM

O=C1CCC(N2C(=O)c3ccc(NC[C@H]4C[C@H](n5cc(-c6ncccc6C6CC6)c(C6CC6)n5)C4)cc3C2=O)C(=O)N1 (stereo partly drawn) [GS-467, 5-(((trans-3-(3-cyclopropyl-4-(3-cyclopropylpyridin-2-yl)-1H-pyrazol-1-yl)cyclobutyl)methyl)amino)-2-(2,6-dioxopiperidin-3-yl)isoindoline-1,3-dione]
IC50 (MV4;11 cells; [1]): 10 to 100 nM
IC50 (MV4;11 cells; [2]): < 10 nM
IC50 (MOLM-13 cells; [3]): 10 to 100 nM
IC50 (MOLM-13 cells; [4]): 10 to 100 nM

O=C1CCC(N2C(=O)c3ccc(NC[C@H]4C[C@H](n5cc(C6CCCCC6)c(C6CC6)n5)C4)cc3C2=O)C(=O)N1 (stereo partly drawn) [GS-468, 5-(((trans-3-(4-cyclohexyl-3-cyclopropyl-1H-pyrazol-1-yl)cyclobutyl)methyl)amino)-2-(2,6-dioxopiperidin-3-yl)isoindoline-1,3-dione]
IC50 (MV4;11 cells; [1]): 10 to 100 nM
IC50 (MV4;11 cells; [2]): 10 to 100 nM
IC50 (MOLM-13 cells; [3]): 100 to 1000 nM
IC50 (MOLM-13 cells; [4]): 10 to 100 nM

O=C1CCC(N2C(=O)c3ccc(CCN4CC(n5cc(-c6cnc7ccccc7n6)c(C6CC6)n5)C4)cc3C2=O)C(=O)N1 (stereo not shown) [GS-469, 5-(2-(3-(3-cyclopropyl-4-(quinoxalin-2-yl)-1H-pyrazol-1-yl)azetidin-1-yl)ethyl)-2-(2,6-dioxopiperidin-3-yl)isoindoline-1,3-dione]
IC50 (MV4;11 cells; [1]): > 1000 nM
IC50 (MV4;11 cells; [2]): > 1000 nM
IC50 (MOLM-13 cells; [3]): > 1000 nM
IC50 (MOLM-13 cells; [4]): > 1000 nM

O=C1CCC(N2C(=O)c3ccc(NC[C@H]4C[C@H](n5nc(C6CC6)c6cccnc65)C4)cc3C2=O)C(=O)N1 (stereo partly drawn) [GS-470, 5-(((trans-3-(3-cyclopropyl-1H-pyrazolo[3,4-b]pyridin-1-yl)cyclobutyl)methyl)amino)-2-(2,6-dioxopiperidin-3-yl)isoindoline-1,3-dione]
IC50 (MV4;11 cells; [1]): 10 to 100 nM
IC50 (MV4;11 cells; [2]): < 10 nM
IC50 (MOLM-13 cells; [3]): 10 to 100 nM
IC50 (MOLM-13 cells; [4]): < 10 nM

O=C1CCC(N2C(=O)c3ccc(NC[C@H]4C[C@H](n5cc(-c6cccc(OC7CC7)n6)c(C6CC6)n5)C4)cc3C2=O)C(=O)N1 (stereo partly drawn) [GS-471, 5-(((trans-3-(4-(6-cyclopropoxypyridin-2-yl)-3-cyclopropyl-1H-pyrazol-1-yl)cyclobutyl)methyl)amino)-2-(2,6-dioxopiperidin-3-yl)isoindoline-1,3-dione]
IC50 (MV4;11 cells; [1]): 10 to 100 nM
IC50 (MV4;11 cells; [2]): 10 to 100 nM
IC50 (MOLM-13 cells; [3]): 100 to 1000 nM
IC50 (MOLM-13 cells; [4]): 10 to 100 nM

CN1CCCC(c2cn([C@H]3C[C@H](CNc4ccc5c(c4)C(=O)N(C4CCC(=O)NC4=O)C5=O)C3)nc2C2CC2)C1 (stereo partly drawn) [GS-472, 5-(((trans-3-(3-cyclopropyl-4-(1-methylpiperidin-3-yl)-1H-pyrazol-1-yl)cyclobutyl)methyl)amino)-2-(2,6-dioxopiperidin-3-yl)isoindoline-1,3-dione]
IC50 (MV4;11 cells; [1]): > 1000 nM
IC50 (MV4;11 cells; [2]): > 1000 nM
IC50 (MOLM-13 cells; [3]): > 1000 nM
IC50 (MOLM-13 cells; [4]): > 1000 nM

O=C1CCC(N2C(=O)c3ccc(NC[C@H]4C[C@H](n5nc(C6CC6)c6ccncc65)C4)cc3C2=O)C(=O)N1 (stereo partly drawn) [GS-473, 5-(((trans-3-(3-cyclopropyl-1H-pyrazolo[3,4-c]pyridin-1-yl)cyclobutyl)methyl)amino)-2-(2,6-dioxopiperidin-3-yl)isoindoline-1,3-dione]
IC50 (MV4;11 cells; [1]): > 1000 nM
IC50 (MV4;11 cells; [2]): > 1000 nM
IC50 (MOLM-13 cells; [3]): > 1000 nM
IC50 (MOLM-13 cells; [4]): > 1000 nM

O=C1CCC(N2C(=O)c3ccc(NC[C@H]4C[C@H](n5nc(C6CC6)c6cnccc65)C4)cc3C2=O)C(=O)N1 (stereo partly drawn) [GS-474, 5-(((trans-3-(3-cyclopropyl-1H-pyrazolo[4,3-c]pyridin-1-yl)cyclobutyl)methyl)amino)-2-(2,6-dioxopiperidin-3-yl)isoindoline-1,3-dione]
IC50 (MV4;11 cells; [1]): > 1000 nM
IC50 (MV4;11 cells; [2]): > 1000 nM
IC50 (MOLM-13 cells; [3]): > 1000 nM
IC50 (MOLM-13 cells; [4]): > 1000 nM

O=C1CCC(N2C(=O)c3ccc(NC[C@H]4C[C@H](n5nc(C6CC6)c6ncccc65)C4)cc3C2=O)C(=O)N1 (stereo partly drawn) [GS-475, 5-(((trans-3-(3-cyclopropyl-1H-pyrazolo[4,3-b]pyridin-1-yl)cyclobutyl)methyl)amino)-2-(2,6-dioxopiperidin-3-yl)isoindoline-1,3-dione]
IC50 (MV4;11 cells; [1]): > 1000 nM
IC50 (MV4;11 cells; [2]): > 1000 nM
IC50 (MOLM-13 cells; [3]): > 1000 nM
IC50 (MOLM-13 cells; [4]): > 1000 nM

O=C1CCC(N2Cc3cc(CNC(=O)c4cccc(N5CCC(n6cc(-c7cnc8ccccc8n7)cn6)CC5)c4)ccc3C2=O)C(=O)N1 (stereo not shown) [GS-476, N-((2-(2,6-dioxopiperidin-3-yl)-1-oxoisoindolin-5-yl)methyl)-3-(4-(4-(quinoxalin-2-yl)-1H-pyrazol-1-yl)piperidin-1-yl)benzamide]
IC50 (MV4;11 cells; [1]): < 10 nM
IC50 (MV4;11 cells; [2]): < 10 nM
IC50 (MOLM-13 cells; [3]): < 10 nM
IC50 (MOLM-13 cells; [4]): < 10 nM

O=C1CCC(N2C(=O)c3ccc(NCCCCCC(=O)N4CCC(n5cc(-c6cnc7cccc(C8=CCNCC8)c7n6)cn5)CC4)cc3C2=O)C(=O)N1 (stereo not shown) [GS-480, 2-(2,6-dioxopiperidin-3-yl)-5-((6-oxo-6-(4-(4-(8-(1,2,3,6-tetrahydropyridin-4-yl)quinoxalin-2-yl)-1H-pyrazol-1-yl)piperidin-1-yl)hexyl)amino)isoindoline-1,3-dione]
IC50 (MV4;11 cells; [1]): 10 to 100 nM
IC50 (MV4;11 cells; [2]): < 10 nM
IC50 (MOLM-13 cells; [3]): 100 to 1000 nM
IC50 (MOLM-13 cells; [4]): < 10 nM

O=C1CCC(N2C(=O)c3ccc(NCCCCCC(=O)N4CCC(c5cnc6ccccc6c5)CC4)cc3C2=O)C(=O)N1 (stereo not shown) [GS-481, 2-(2,6-dioxopiperidin-3-yl)-5-((6-oxo-6-(4-(quinolin-3-yl)piperidin-1-yl)hexyl)amino)isoindoline-1,3-dione]
IC50 (MV4;11 cells; [1]): < 10 nM
IC50 (MV4;11 cells; [2]): < 10 nM
IC50 (MOLM-13 cells; [3]): 10 to 100 nM
IC50 (MOLM-13 cells; [4]): < 10 nM
